One molecule from PMC11035414, “A comparison study of dynamic [^18F]Alfatide II imaging and [^11C]MET in orthotopic rat models of glioblastoma” (Journal of Cancer Research and Clinical Oncology, 2024) can be followed below.

In series [1] the test system is orthotopic GBM rat models (C6 glioma cells). Description: Dynamic PET/MR imaging, semi-quantitative analysis (SUVmean, TNR, time-activity curves). Particulars: in vivo. The method, then:
C6 glioma cells from GuYan Biotech Co., Ltd. (Shanghai, China) were cultured in DMEM at 37 °C and 5% CO2. After two generations of cell culture, C6 cells were trypsinized and resuspended at the concentration of 1 × 10^7 cells/mL to prepare GBM model. […] After the hair on the top of the head was cut off, a small hole with a diameter of about 2 mm was drilled at the intersection of the left side of sagittal suture 3 mm and the front side of coronal suture 1 mm. […] After administering the injection, the syringe was carefully withdrawn. The burr hole was then sealed with bone wax, followed by suturing the skin closed. […] Simultaneous dynamic PET and MRI was performed with 150 mm field of view for whole-body mouse imaging. For [^18[…] imaging, the rat models received the intravenous bolus injection of 13.0 ± 2.1 MBq of the radiotracer. […] We conducted [^11C]MET and [^18[…] scans on 20 rats, with a time interval of no more than 48 h between the scans using the two tracers. […] On the PET image with both radiotracers, the MRI-based volume-of-interest (VOI) was manually delineated encompassing glioblastoma. […] The following parameters were extracted from TACs: time to peak (TTP) and slope of curve.

Series [2] concerns C6 glioblastoma-bearing rats. Description: Ex vivo biodistribution study (γ counter). Particulars: rat, in vivo. The procedure:
Biodistribution study: […] The tumors and major tissue organs (blood, brain, heart, lungs, liver, spleen, blander, kidneys, bowel, muscle, femur and tumor) were collected. Tissues and organs were washed with normal saline and dried, and weighed using an electronic scale. The radioactivity counts of tissues and organs were measured with a γ counter, and the corresponding radioactivity value (%ID/g) was calculated after time attenuation correction.

Structures are written as SMILES.

On to `[11CH3]SCC[C@H](N)C(=O)O` [[^11C]MET, [^11C]methionine], for which, in series [1], the “SUVmean in contralateral normal brain tissue” value stood at 0.39 ± 0.12 and the “tumor-to-normal brain ratio (TNR)” value turned out to be 2.91 ± 0.81. Moreover, the “normal organ(s) with the highest uptake, ex vivo” value in series [2] is listed as “liver”.
